By IC50 is commonly meant the midpoint of a concentration-inhibition curve.

The assay has as its system HIV. Briefly: MT4 assay: antiviral HIV activity (cell protection, cell titer glo readout at 96 hours). Format: cell-based. The note with it: Human immunodeficiency virus 1, MT4, 96 h, MT4 cells, cell titer glo readout at 96 hours, 10 point dose response; read-out: HIV MT4 Assay IC50. The essentials: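 MT-4 cells infected with HIV, with inhibition readout by CellTiter-Glo luminescence at 96 h relative to no-compound control. Cytotoxicity measured in parallel under the same conditions. IC50 from a 10-point, 3-4-fold dilution series spanning >1000-fold, fitted with a four-parameter logistic equation.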
As for `Cc1nc2c(cc(-c3nc(-c4ccc5c(cnn5C)c4)no3)n2C)c(-c2cc(F)c3c(c2C)CCCO3)c1[C@H](OC(C)(C)C)C(=O)O` (atropisomer, axis not shown; (M)) [Example 354, (2S)(M)-2-(tert-butoxy)-2-(4-(8-fluoro-5-methylchroman-6-yl)-1,6-dimethyl-2-(3-(1-methyl-1H-indazol-5-yl)-1,2,4-oxadiazol-5-yl)-1H-pyrrolo[2,3-b]pyridin-5-yl)acetic acid], the IC50 was 5 nM. Next, `Cc1nc2c(cc(-c3nc(-c4ccc5c(cnn5C)c4)ns3)n2C)c(-c2cc(F)c3c(c2C)CCCO3)c1[C@H](OC(C)(C)C)C(=O)O` (atropisomer, axis not shown; (M)) [Example 355, (2S)(M)-2-(tert-butoxy)-2-(-4-(8-fluoro-5-methylchroman-6-yl)-1,6-dimethyl-2-(3-(1-methyl-1H-indazol-5-yl)-1,2,4-thiadiazol-5-yl)-1H-pyrrolo[2,3-b]pyridin-5-yl)acetic acid]: 4.7 nM.

`Cc1nc2c(cc(-c3nnc(-c4ccc5c(cnn5C)c4)s3)n2C)c(-c2cc(F)c3c(c2C)CCCO3)c1[C@H](OC(C)(C)C)C(=O)O` (atropisomer, axis not shown; (M)) [Example 356, (2S)(M)-2-(tert-butoxy)-2-(-4-(8-fluoro-5-methylchroman-6-yl)-1,6-dimethyl-2-(5-(1-methyl-1H-indazol-5-yl)-1,3,4-thiadiazol-2-yl)-1H-pyrrolo[2,3-b]pyridin-5-yl)acetic acid]: the IC50 is 9.8 nM. Next, `Cc1nc2c(cc(-c3nsc(-c4ccc5c(cnn5C)c4)n3)n2C)c(-c2cc(F)c3c(c2C)CCCO3)c1[C@H](OC(C)(C)C)C(=O)O` (atropisomer, axis not shown; (M)) [Example 357, (2S)(M)-2-(tert-butoxy)-2-(-4-(8-fluoro-5-methylchroman-6-yl)-1,6-dimethyl-2-(5-(1-methyl-1H-indazol-5-yl)-1,2,4-thiadiazol-3-yl)-1H-pyrrolo[2,3-b]pyridin-5-yl)acetic acid]: 4 nM; `Cc1nc2c(cc(-c3nccc(N4CCN(C5CCOCC5)CC4)n3)n2C)c(-c2cc(F)c3c(c2C)CCCO3)c1[C@H](OC(C)(C)C)C(=O)O` (atropisomer, axis not shown; (M)) [Example 358]: 17.6 nM. To `Cc1nc2c(cc(-c3nc(N4C[C@@H](C)O[C@@H](C)C4)no3)n2C)c(-c2cc(F)c3c(c2C)CCCO3)c1[C@H](OC(C)(C)C)C(=O)O` (atropisomer, axis not shown; (M)) [Example 410, (2S)(M)-2-(tert-butoxy)-2-(-2-(3-((2S,6R)-2,6-dimethylmorpholino)-1,2,4-oxadiazol-5-yl)-4-(8-fluoro-5-methylchroman-6-yl)-1,6-dimethyl-1H-pyrrolo[2,3-b]pyridin-5-yl)acetic acid] belongs 3.1 nM; to `Cc1nc2c(cc(-c3noc(N4CCC(C)CC4)n3)n2C)c(-c2cc(F)c3c(c2C)CCCO3)c1[C@H](OC(C)(C)C)C(=O)O` (atropisomer, axis not shown; (M)) [Example 411, (2S)(M)-2-(tert-butoxy)-2-(-4-(8-fluoro-5-methylchroman-6-yl)-1,6-dimethyl-2-(5-(4-methylpiperidin-1-yl)-1,2,4-oxadiazol-3-yl)-1H-pyrrolo[2,3-b]pyridin-5-yl)acetic acid], 7.6 nM; to `Cc1nc2c(cc(CNC(=O)c3ccc4c(cnn4C)c3)n2C)c(-c2cc(F)c3c(c2C)CCCO3)c1[C@H](OC(C)(C)C)C(=O)O` (atropisomer, axis not shown; (M)) [Example 412, (2S)(M)-2-(tert-butoxy)-2-(-4-(8-fluoro-5-methylchroman-6-yl)-1,6-dimethyl-2-((1-methyl-1H-indazole-5-carboxamido)methyl)-1H-pyrrolo[2,3-b]pyridin-5-yl)acetic acid], 43.1 nM. Next, `COCCNC(=O)/C=C/c1cc2c(-c3cc(F)c4c(c3C)CCCO4)c([C@H](OC(C)(C)C)C(=O)O)c(C)nc2n1C` (atropisomer, axis not shown; (M)) [Example 413, (2S)(M)-2-(tert-butoxy)-2-(-4-(8-fluoro-5-methylchroman-6-yl)-2-((E)-3-((2-methoxyethyl)amino)-3-oxoprop-1-en-1-yl)-1,6-dimethyl-1H-pyrrolo[2,3-b]pyridin-5-yl)acetic acid]: 148 nM. Regarding `Cc1nc2c(cc(C(=O)C(=O)NCc3ccccc3)n2C)c(-c2cc(F)c3c(c2C)CCCO3)c1[C@H](OC(C)(C)C)C(=O)O` (atropisomer, axis not shown; (M)) [Example 420, (2S)(M)-2-(-2-(2-(benzylamino)-2-oxoacetyl)-4-(8-fluoro-5-methylchroman-6-yl)-1,6-dimethyl-1H-pyrrolo[2,3-b]pyridin-5-yl)-2-(tert-butoxy)acetic acid], the IC50 was 94.6 nM.

Regarding `Cc1nc2c(cc(-c3nnc(N4C[C@@H](C)O[C@@H](C)C4)o3)n2C)c(-c2cc(F)c3c(c2C)CCCO3)c1[C@H](OC(C)(C)C)C(=O)O` (racemic) [Example 338], the IC50 turned out to be 1.6 nM. `Cc1nc2c(cc(-c3cc(N4C[C@@H](C)O[C@@H](C)C4)ncn3)n2C)c(-c2cc(F)c3c(c2C)CCCO3)c1[C@H](OC(C)(C)C)C(=O)O` (racemic) [Example 364]: the IC50 is 10.9 nM. On to `Cc1nc2c(cc(-c3nc(N4C[C@@H](C)N[C@@H](C)C4)ns3)n2C)c(-c2cc(F)c3c(c2C)CCCO3)c1[C@H](OC(C)(C)C)C(=O)O` (racemic) [Example 397], for which the half-maximal inhibitory concentration (IC50) came out at 13.1 nM. Turning to `Cc1nc2c(cc(-c3csc(N4C[C@@H](C)O[C@@H](C)C4)n3)n2C)c(-c2cc(F)c3c(c2C)CCCO3)c1[C@H](OC(C)(C)C)C(=O)O` (racemic) [Example 409], the IC50 amounted to 13.4 nM. To `Cc1nc2c(cc(-c3ccnc(N4CC(N5CCOCC5)C4)c3)n2C)c(-c2cc(F)c3c(c2C)CCCO3)c1[C@H](OC(C)(C)C)C(=O)O` [Example 2, (2S)-2-(tert-butoxy)-2-[4-(8-fluoro-5-methyl-3,4-dihydro-2H-1-benzopyran-6-yl)-1,6-dimethyl-2-{2-[3-(morpholin-4-yl)azetidin-1-yl]pyridin-4-yl}-1H-pyrrolo[2,3-b]pyridin-5-yl]acetic acid] belongs 15.6 nM. Take `Cc1nc2c(cc(-c3ccnc(-c4ccc5c(cnn5C)c4)c3)n2C)c(-c2ccc(Cl)cc2)c1[C@H](OC(C)(C)C)C(=O)O` [Example 15, (2S)-2-(tert-butoxy)-2-[4-(4-chlorophenyl)-1,6-dimethyl-2-[2-(1-methyl-1H-indazol-5-yl)pyridin-4-yl]-1H-pyrrolo[2,3-b]pyridin-5-yl]acetic acid]: the IC50 worked out at 13.7 nM.

Take `CCCn1cc(-c2cc(-c3cc4c(-c5cc(F)c6c(c5C)CCCO6)c([C@H](OC(C)(C)C)C(=O)O)c(C)nc4n3C)ccn2)cn1` [Example 44]: the IC50 was 14 nM. Take `Cc1nc2c(cc(-c3ccnc(-c4ccc5c(c4)ncn5C)c3)n2C)c(-c2cc(F)c3c(c2C)CCCO3)c1[C@H](OC(C)(C)C)C(=O)O` [Example 51]: the IC50 was found to be 4 nM.

`Cc1nc2c(cc(-c3ccnc(-c4ccc5nn(C)nc5c4)c3)n2C)c(-c2cc(F)c3c(c2C)CCCO3)c1[C@H](OC(C)(C)C)C(=O)O` [Example 61]: the IC50 stood at 2.6 nM. Take `Cc1nc2c(cc(-c3ccnc(-c4ccc5nn(C6COC6)cc5c4)c3)n2C)c(-c2cc(F)c3c(c2C)CCCO3)c1[C@H](OC(C)(C)C)C(=O)O` [Example 64]: the IC50 was 2.8 nM. With `Cc1nc2c(cc(-c3ccnc(-c4ccc5c(cnn5C5COC5)c4)c3)n2C)c(-c2cc(F)c3c(c2C)CCCO3)c1[C@H](OC(C)(C)C)C(=O)O` [Example 65], the IC50 is 2.4 nM.

As to `Cc1nc2c(cc(-c3cccc(-c4ccc5c(cnn5C)c4)n3)n2C)c(-c2cc(F)c3c(c2C)CCCO3)c1[C@H](OC(C)(C)C)C(=O)O` [Example 71], the IC50 came out at 23.4 nM. On to `Cc1cc(COc2cc(-c3cc4c(-c5cc(F)c6c(c5C)CCCO6)c([C@H](OC(C)(C)C)C(=O)O)c(C)nc4n3C)ccn2)ccn1` [Example 73], for which the IC50 came out at 3.8 nM.

As for `Cc1nc2c(cc(-c3ccnc(CNc4ncc(F)cn4)c3)n2C)c(-c2cc(F)c3c(c2C)CCCO3)c1[C@H](OC(C)(C)C)C(=O)O` [Example 74], the IC50 turned out to be 56.5 nM. To `Cc1nc2c(cc(-c3ccnc(OC4CCN(Cc5ccccc5)CC4)c3)n2C)c(-c2cc(F)c3c(c2C)CCCO3)c1[C@H](OC(C)(C)C)C(=O)O` [Example 75] belongs 100 nM; to `Cc1nc2c(cc(-c3ccnc(CNc4ccccn4)c3)n2C)c(-c2cc(F)c3c(c2C)CCCO3)c1[C@H](OC(C)(C)C)C(=O)O` [Example 76], 112 nM. `Cc1nc2c(cc(-c3ccnc(CN(C)c4ccccn4)c3)n2C)c(-c2cc(F)c3c(c2C)CCCO3)c1[C@H](OC(C)(C)C)C(=O)O` [Example 77]: the IC50 was 41 nM. To `Cc1nc2c(cc(-c3ccnc(-c4ccc5c(c4)OCCO5)c3)n2C)c(-c2cc(F)c3c(c2C)CCCO3)c1[C@H](OC(C)(C)C)C(=O)O` [Example 78] belongs 5.8 nM. As to `Cc1nc2c(cc(-c3ccnc(N4CCCN(C(=O)C5CCOC5)CC4)c3)n2C)c(-c2cc(F)c3c(c2C)CCCO3)c1[C@H](OC(C)(C)C)C(=O)O` (stereo partly drawn) [Example 105], the IC50 amounted to 54.6 nM. For `Cc1nc2c(cc(-c3ccnc(N4CCC(Oc5ccccc5)C4)c3)n2C)c(-c2cc(F)c3c(c2C)CCCO3)c1[C@H](OC(C)(C)C)C(=O)O` (stereo partly drawn) [Example 107], the IC50 stood at 44.5 nM. As to `CCN(CC)C1C[C@H]2CC[C@@H](C1)N2c1cc(-c2cc3c(-c4cc(F)c5c(c4C)CCCO5)c([C@H](OC(C)(C)C)C(=O)O)c(C)nc3n2C)ccn1` (stereo partly drawn) [Example 110], the IC50 came to 45 nM. Next, `Cc1nc2c(cc(-c3ccnc(NC4C[C@H]5CC[C@@H](C4)N5C)c3)n2C)c(-c2cc(F)c3c(c2C)CCCO3)c1[C@H](OC(C)(C)C)C(=O)O` (stereo partly drawn) [Example 112]: 1330 nM; `Cc1nc2c(cc(-c3ccnc(N4CCN5CCCC5C4)c3)n2C)c(-c2cc(F)c3c(c2C)CCCO3)c1[C@H](OC(C)(C)C)C(=O)O` (stereo partly drawn) [Example 116]: 40 nM.

The values are drawn from patent US20150191469A1, “COMPOUNDS AND METHODS FOR TREATING HIV” (priority 2012, published 2015).
